Results published in ChEMBL document CHEMBL3217478, “Necrosulfonamide inhibits necroptosis by selectively targeting the mixed lineage kinase domain-like protein” (2014).
Calls of active or inactive are those of the source. The calls are words filed in the database; no cut-off is given here. Residues, ends and D or L forms follow the SMILES beside them. *: point of attachment. X1 = COc1nc(CCCN*)cnc1NS(=O)(=O)c1ccc(NC(=O)CCc2cccs2)cc1; Biotin = O=C1N[C@H]2[C@H](CS[C@H]2CCCCC(=O)*)N1; Ahx = NCCCCCC(=O)O

target: T1, Mixed lineage kinase domain-like protein (Homo sapiens) (UniProt Q8NB16); assay: Competitive binding affinity to Myc-tagged MLKL (unknown origin) transfected in human HeLa cells at 20 nM by Western blot analysis in presence of biotin-labeled positive probe; assay type: cell-based; details: not given
T1 sequence (whole entry): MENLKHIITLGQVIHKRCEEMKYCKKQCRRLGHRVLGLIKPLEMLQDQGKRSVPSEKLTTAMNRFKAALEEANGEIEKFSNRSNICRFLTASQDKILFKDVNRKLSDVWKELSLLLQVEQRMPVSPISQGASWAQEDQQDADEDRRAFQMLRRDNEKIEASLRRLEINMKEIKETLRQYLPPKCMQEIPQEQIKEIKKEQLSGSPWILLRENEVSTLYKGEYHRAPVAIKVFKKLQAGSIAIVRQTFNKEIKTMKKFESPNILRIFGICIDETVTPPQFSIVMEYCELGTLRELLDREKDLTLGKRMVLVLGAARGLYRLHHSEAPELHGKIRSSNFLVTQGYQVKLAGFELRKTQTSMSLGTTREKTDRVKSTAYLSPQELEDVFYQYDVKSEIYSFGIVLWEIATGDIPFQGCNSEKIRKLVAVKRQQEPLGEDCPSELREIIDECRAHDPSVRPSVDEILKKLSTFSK

Question: COc1nccnc1NS(=O)(=O)c1ccc(NC(=O)/C=C/c2ccc([N+](=O)[O-])s2)cc1 was tested. Which Activity did it give?
Answer: Active

Question: With COc1nccnc1NS(=O)(=O)c1ccc(NC(=O)/C=C/c2ccc(Br)s2)cc1 as the compound, how does the Activity read?
Answer: inactive

Question: With C#CCOc1nccnc1NS(=O)(=O)c1ccc(NC(=O)/C=C/c2sccc2[N+](=O)[O-])cc1 as the compound, how does the Activity read?
Answer: inactive

system: HT-29; assay: Cytoprotective activity against TNF-alpha, smac mimetic, z-VAD-induced necrosis in human HT-29 cells assessed as cell survival by measuring cellular ATP level at 4 uM after 24 hrs by Cell Titer-Glo assay relative to control; assay type: functional; details: not given

Question: For COc1nc(CCCNC(=O)CC[C@H](NC(=O)[C@@H]2CCCN2C(=O)[C@@H]2CCCN2C(=O)[C@@H]2CCCN2C(=O)[C@@H]2CCCN2C(=O)[C@@H]2CCCN2C(=O)[C@@H]2CCCN2C(=O)[C@@H]2CCCN2C(=O)[C@@H]2CCCN2C(=O)[C@@H]2CCCN2C(=O)CCCCCNC(=O)CCCC[C@@H]2SC[C@@H]3NC(=O)N[C@@H]32)C(N)=O)cnc1NS(=O)(=O)c1ccc(NC(=O)CCc2cccs2)cc1 ({Biotin-Ahx}-PPPPPPPPPE(X1)-NH2), which Activity is on record?
Answer: inactive

Question: For COc1nc(CCCNC(=O)CC[C@H](NC(=O)[C@@H]2CCCN2C(=O)[C@@H]2CCCN2C(=O)[C@@H]2CCCN2C(=O)[C@@H]2CCCN2C(=O)C2CCCN2C(=O)[C@@H]2CCCN2C(=O)[C@@H]2CCCN2C(=O)[C@@H]2CCCN2C(=O)[C@@H]2CCCN2C(=O)CCCCCNC(=O)CCCC[C@@H]2SC[C@@H]3NC(=O)N[C@@H]32)C(N)=O)cnc1NS(=O)(=O)c1ccc(NC(=O)/C=C/c2ccc([N+](=O)[O-])s2)cc1 (single isomer, unassigned), which Activity is on record?
Answer: Active

same assay, conditions: HT-29, 24 h, read-out: Survival

Question: For O=C(/C=C/c1ccc([N+](=O)[O-])s1)Nc1ccc(S(=O)(=O)Nc2nccnc2O)cc1, which viability at 4 µM is on record?
Answer: 90.4%

Question: How did the viability at 4 µM turn out when COc1nccnc1NS(=O)(=O)c1ccc(NC(=O)/C=C/c2ccc([N+](=O)[O-])s2)cc1 was run?
Answer: 80.3%

Question: COc1nccnc1NS(=O)(=O)c1ccc(NC(=O)/C=C/c2cccs2)cc1 was tested. Which viability at 4 µM did it give?
Answer: 29.5%

Question: COc1nccnc1NS(=O)(=O)c1ccc(NC(=O)CCc2cccs2)cc1 was tested. Which viability at 4 µM did it give?
Answer: 30.4%

Question: How did the viability at 4 µM turn out when C#CCOc1nccnc1NS(=O)(=O)c1ccc(NC(=O)/C=C/c2ccc([N+](=O)[O-])s2)cc1 was run?
Answer: 90.8%

Question: How did the viability at 4 µM turn out when COc1nccnc1NS(=O)(=O)c1ccc(NC(=O)/C=C/c2ccc([N+](=O)[O-])cc2)cc1 was run?
Answer: 32.2%

Question: Cc1cc(C)nc(NS(=O)(=O)c2ccc(NC(=O)/C=C/c3ccc([N+](=O)[O-])s3)cc2)n1 was tested. Which viability at 4 µM did it give?
Answer: 79.2%

Question: Which viability at 4 µM does the source give for COc1nccnc1NS(=O)(=O)c1ccc(NC(=O)CCc2ccc([N+](=O)[O-])s2)cc1 here?
Answer: 29.9%

Question: COc1nc(Br)cnc1NS(=O)(=O)c1ccc(NC(=O)/C=C/c2ccc([N+](=O)[O-])s2)cc1 was tested. Which viability at 4 µM did it give?
Answer: 90.8%

Question: With COc1nccnc1NS(=O)(=O)c1ccc(NC(=O)/C=C/c2cccc([N+](=O)[O-])c2)cc1 as the compound, how does the viability at 4 µM read?
Answer: 32%

Question: O=C(/C=C/c1ccc([N+](=O)[O-])s1)Nc1ccc(S(=O)(=O)Nc2nccnc2OCc2ccccc2)cc1 was tested. Which viability at 4 µM did it give?
Answer: 92.2%

Question: COc1nccnc1NS(=O)(=O)c1ccc(NC(=O)/C=C/c2ccc(Br)s2)cc1 was tested. Which viability at 4 µM did it give?
Answer: 31.8%

Question: For C#CCOc1nccnc1NS(=O)(=O)c1ccc(NC(=O)/C=C/c2sccc2[N+](=O)[O-])cc1, which viability at 4 µM is on record?
Answer: 19.8%
